In ChEMBL document CHEMBL3600292, “Anti-HIV screening for cell-penetrating peptides using chloroquine and identification of anti-HIV peptides derived from matrix proteins” (Bioorg Med Chem, 2015):
Starred links: 1 amine or outer side, 2 acyl side, 3 side chain; linkers in the order of their positions; H or OH if unused. Positions of bridges follow the written chain, without caps; N, C: chain ends. Non-standard residues stand in square brackets, D forms with d. Residues, ends and D or L forms follow the SMILES beside them. Chains are numbered I, II in the order given. Orn = NCCC[C@H](N)C(=O)O; X1 = O=C(C[*:1])[*:2]

Experiments:
[1] = tested on: Human immunodeficiency virus 1; test: Antiviral activity against macrophage-tropic HIV1 NL(AD8) infected in human PM1 expressing CCR5 cells assessed as inhibition of virus-induced cytopathogenicity after 5 days by MTT assay in presence of 5 uM of chloroquine; type: functional, organism-based; settings: Human immunodeficiency virus 1, NL(AD8), PM1/CCR5, 120 h
[2] = tested on: Human immunodeficiency virus 1; test: Antiviral activity against T-cell line-tropic HIV1 NL4-3 infected in human MT4 cells assessed as inhibition of virus-induced cytopathogenicity after 5 days by MTT assay in presence of 5 uM of chloroquine; type: functional, organism-based; settings: Human immunodeficiency virus 1, NL4-3, MT4, 120 h
[3] = Cytotoxicity against human MT4 cells by MTT assay; type: cell-based
[4] = Cytotoxicity against human PM1 cells expressing CCR5 by MTT assay in presence of 5 uM of chloroquine; type: cell-based
[5] = tested on: Human immunodeficiency virus 1; test: Antiviral activity against T-cell line-tropic HIV1 NL4-3 infected in human MT4 cells assessed as inhibition of virus-induced cytopathogenicity after 5 days by MTT assay; type: functional, organism-based; settings: Human immunodeficiency virus 1, NL4-3, MT4, 120 h
[6] = Cytotoxicity against human MT4 cells by MTT assay in presence of 5 uM of chloroquine; type: cell-based

Row | Compound | EC50 [1] [µM] | EC50 [2] [µM] | CC50 [3] [µM] | CC50 [4] [µM] | EC50 [5] [µM] | CC50 [6] [µM]
1 | CC[C@H](C)[C@H](NC(=O)[C@@H](NC(=O)[C@H](CC(N)=O)NC(=O)[C@H](Cc1ccc(O)cc1)NC(=O)[C@H](CC(C)C)NC(=O)[C@H](CO)NC(=O)[C@H](CCCNC(=N)N)NC(=O)[C@H](CC(C)C)NC(=O)[C@H](CCC(=O)O)NC(=O)[C@H](CCC(=O)O)NC(=O)[C@H](CO)NC(C)=O)[C@@H](C)O)C(=O)N[C@@H](C)C(=O)N[C@H](C(=O)N[C@@H](CC(C)C)C(=O)N[C@@H](Cc1ccc(O)cc1)C(=O)NCC(=O)N[C@@H](CSCC(=O)N[C@@H](CCCNC(=N)N)C(=O)N[C@@H](CCCNC(=N)N)C(=O)N[C@@H](CCCNC(=N)N)C(=O)N[C@@H](CCCNC(=N)N)C(=O)N[C@@H](CCCNC(=N)N)C(=O)N[C@@H](CCCNC(=N)N)C(=O)N[C@@H](CCCNC(=N)N)C(=O)N[C@@H](CCCNC(=N)N)C(N)=O)C(N)=O)C(C)C | > 13 | > 8.7 | 10 | 13 | > 10 | 8.7
2 | CC[C@H](C)[C@H](NC(=O)[C@@H](NC(=O)[C@H](CC(N)=O)NC(=O)[C@H](Cc1ccc(O)cc1)NC(=O)[C@H](CC(C)C)NC(=O)[C@H](CO)NC(=O)[C@H](CCCNC(=N)N)NC(=O)[C@H](CC(C)C)NC(=O)[C@H](CCC(=O)O)NC(=O)[C@H](CCC(=O)O)NC(C)=O)[C@@H](C)O)C(=O)N[C@@H](C)C(=O)N[C@H](C(=O)N[C@@H](CC(C)C)C(=O)N[C@@H](Cc1ccc(O)cc1)C(=O)N[C@@H](CO)C(=O)NCC(=O)N[C@@H](CSCC(=O)N[C@@H](CCCNC(=N)N)C(=O)N[C@@H](CCCN)C(=O)N[C@@H](CCCNC(=N)N)C(=O)N[C@@H](CCCN)C(=O)N[C@@H](CCCNC(=N)N)C(=O)N[C@@H](CCCN)C(=O)N[C@@H](CCCNC(=N)N)C(=O)N[C@@H](CCCN)C(N)=O)C(N)=O)C(C)C | > 9.3 | > 10 | 9.3 | 9.3 | > 9.3 | 10
3 | CC[C@H](C)[C@H](NC(=O)[C@@H](NC(=O)[C@H](CC(N)=O)NC(=O)[C@H](Cc1ccc(O)cc1)NC(=O)[C@H](CC(C)C)NC(=O)[C@H](CO)NC(=O)[C@H](CCCNC(=N)N)NC(=O)[C@H](CC(C)C)NC(=O)[C@H](CCC(=O)O)NC(C)=O)[C@@H](C)O)C(=O)N[C@@H](C)C(=O)N[C@H](C(=O)N[C@@H](CC(C)C)C(=O)N[C@@H](Cc1ccc(O)cc1)C(=O)N[C@@H](CO)C(=O)N[C@H](C(=O)NCC(=O)N[C@@H](CSCC(=O)N[C@@H](CCCNC(=N)N)C(=O)N[C@@H](CCCN)C(=O)N[C@@H](CCCNC(=N)N)C(=O)N[C@@H](CCCN)C(=O)N[C@@H](CCCNC(=N)N)C(=O)N[C@@H](CCCN)C(=O)N[C@@H](CCCNC(=N)N)C(=O)N[C@@H](CCCN)C(N)=O)C(N)=O)C(C)C)C(C)C | 2.3 | 4.5 | 7.7 | 8.4 | > 7.7 | 8.1
4 | CC[C@H](C)[C@H](NC(=O)[C@@H](NC(=O)[C@H](CC(N)=O)NC(=O)[C@H](Cc1ccc(O)cc1)NC(=O)[C@H](CC(C)C)NC(=O)[C@H](CO)NC(=O)[C@H](CCCNC(=N)N)NC(=O)[C@H](CC(C)C)NC(C)=O)[C@@H](C)O)C(=O)N[C@@H](C)C(=O)N[C@H](C(=O)N[C@@H](CC(C)C)C(=O)N[C@@H](Cc1ccc(O)cc1)C(=O)N[C@@H](CO)C(=O)N[C@H](C(=O)N[C@@H](Cc1c[nH]cn1)C(=O)NCC(=O)N[C@@H](CSCC(=O)N[C@@H](CCCNC(=N)N)C(=O)N[C@@H](CCCN)C(=O)N[C@@H](CCCNC(=N)N)C(=O)N[C@@H](CCCN)C(=O)N[C@@H](CCCNC(=N)N)C(=O)N[C@@H](CCCN)C(=O)N[C@@H](CCCNC(=N)N)C(=O)N[C@@H](CCCN)C(N)=O)C(N)=O)C(C)C)C(C)C | > 5.2 | 4.6 | 8.5 | 5.2 | > 8.5 | 10
5 | CC[C@H](C)[C@H](NC(=O)[C@H](CCCCN)NC(=O)[C@@H](NC(=O)[C@H](CCC(N)=O)NC(=O)[C@H](CCCNC(=N)N)NC(=O)[C@H](C)NC(=O)[C@H](Cc1c[nH]cn1)NC(C)=O)[C@@H](C)O)C(=O)N[C@@H](Cc1ccc(O)cc1)C(=O)N[C@H](C(=O)N[C@H](C(=O)N[C@@H](CC(=O)O)C(=O)N[C@H](C(=O)N[C@@H](CC(C)C)C(=O)N[C@@H](CO)C(=O)N[C@H](C(=O)NCC(=O)N[C@@H](CSCC(=O)N[C@@H](CCCNC(=N)N)C(=O)N[C@@H](CCCN)C(=O)N[C@@H](CCCNC(=N)N)C(=O)N[C@@H](CCCN)C(=O)N[C@@H](CCCNC(=N)N)C(=O)N[C@@H](CCCN)C(=O)N[C@@H](CCCNC(=N)N)C(=O)N[C@@H](CCCN)C(N)=O)C(N)=O)C(C)C)C(C)C)C(C)C)[C@@H](C)CC (I: Ac-HARQTKIYIVDVLSVGC-NH2 / II: R[Orn]R[Orn]R[Orn]R[Orn]-NH2; linker I:17-II:N via X1) | > 8.7 | > 8.2 | 8.2 | 8.7 | > 8.2 | 8.2
6 | CC[C@H](C)[C@H](NC(=O)[C@H](CCCNC(=N)N)NC(=O)[C@H](CCC(N)=O)NC(=O)[C@H](Cc1c[nH]cn1)NC(=O)[C@@H](NC(=O)[C@H](CO)NC(=O)[C@H](Cc1ccc(O)cc1)NC(=O)[C@H](CC(C)C)NC(=O)[C@@H](NC(=O)[C@H](C)NC(=O)[C@@H](NC(=O)[C@@H](NC(=O)[C@H](CC(N)=O)NC(=O)[C@H](Cc1ccc(O)cc1)NC(=O)[C@H](CC(C)C)NC(C)=O)[C@@H](C)O)[C@@H](C)CC)C(C)C)C(C)C)C(=O)NCC(=O)N[C@@H](CSCC(=O)N[C@@H](CCCNC(=N)N)C(=O)N[C@@H](CCCN)C(=O)N[C@@H](CCCNC(=N)N)C(=O)N[C@@H](CCCN)C(=O)N[C@@H](CCCNC(=N)N)C(=O)N[C@@H](CCCN)C(=O)N[C@@H](CCCNC(=N)N)C(=O)N[C@@H](CCCN)C(N)=O)C(N)=O (I: Ac-LYNTIAVLYSVHQRIGC-NH2 / II: R[Orn]R[Orn]R[Orn]R[Orn]-NH2; linker I:17-II:N via X1) | 2.8 | 0.64 | 11 | 8.7 | 6.3 | 12
7 | CC[C@H](C)[C@H](NC(=O)[C@H](CCCNC(=N)N)NC(=O)[C@H](CCC(N)=O)NC(=O)[C@H](Cc1c[nH]cn1)NC(=O)[C@@H](NC(=O)[C@H](CO)NC(=O)[C@H](Cc1ccc(O)cc1)NC(=O)[C@H](CC(C)C)NC(=O)[C@@H](NC(=O)[C@H](C)NC(=O)[C@@H](NC(=O)[C@@H](NC(=O)[C@H](CC(N)=O)NC(C)=O)[C@@H](C)O)[C@@H](C)CC)C(C)C)C(C)C)C(=O)N[C@@H](CC(=O)O)C(=O)N[C@H](C(=O)NCC(=O)N[C@@H](CSCC(=O)N[C@@H](CCCNC(=N)N)C(=O)N[C@@H](CCCN)C(=O)N[C@@H](CCCNC(=N)N)C(=O)N[C@@H](CCCN)C(=O)N[C@@H](CCCNC(=N)N)C(=O)N[C@@H](CCCN)C(=O)N[C@@H](CCCNC(=N)N)C(=O)N[C@@H](CCCN)C(N)=O)C(=O)O)C(C)C (I: Ac-NTIAVLYSVHQRIDVGC-OH / II: R[Orn]R[Orn]R[Orn]R[Orn]-NH2; linker I:17-II:N via X1) | 5.6 | 2 | 18 | 17 | > 18 | 18
8 | CC[C@H](C)[C@H](NC(=O)[C@@H](NC(=O)[C@H](CC(N)=O)NC(=O)[C@H](Cc1ccc(O)cc1)NC(=O)[C@H](CC(C)C)NC(=O)[C@H](CO)NC(=O)[C@H](CCCNC(=N)N)NC(C)=O)[C@@H](C)O)C(=O)N[C@@H](C)C(=O)N[C@H](C(=O)N[C@@H](CC(C)C)C(=O)N[C@@H](Cc1ccc(O)cc1)C(=O)N[C@@H](CO)C(=O)N[C@H](C(=O)N[C@@H](Cc1cnc[nH]1)C(=O)N[C@@H](CCC(N)=O)C(=O)NCC(=O)N[C@@H](CSCC(=O)N[C@@H](CCCNC(=N)N)C(=O)N[C@@H](CCCN)C(=O)N[C@@H](CCCNC(=N)N)C(=O)N[C@@H](CCCN)C(=O)N[C@@H](CCCNC(=N)N)C(=O)N[C@@H](CCCN)C(=O)N[C@@H](CCCNC(=N)N)C(=O)N[C@@H](CCCN)C(N)=O)C(N)=O)C(C)C)C(C)C (I: Ac-RSLYNTIAVLYSVHQGC-NH2 / II: R[Orn]R[Orn]R[Orn]R[Orn]-NH2; linker I:17-II:N via X1) | 1.3 | 0.85 | 9.2 | 8.2 | 5.2 | 9.2
9 | CC[C@H](C)[C@H](NC(=O)[C@@H](NC(=O)[C@H](CC(N)=O)NC(=O)[C@H](Cc1ccc(O)cc1)NC(=O)[C@H](CC(C)C)NC(=O)[C@H](CO)NC(C)=O)[C@@H](C)O)C(=O)N[C@@H](C)C(=O)N[C@H](C(=O)N[C@@H](CC(C)C)C(=O)N[C@@H](Cc1ccc(O)cc1)C(=O)N[C@@H](CO)C(=O)N[C@H](C(=O)N[C@@H](Cc1c[nH]cn1)C(=O)N[C@@H](CCC(N)=O)C(=O)N[C@@H](CCCNC(=N)N)C(=O)NCC(=O)N[C@@H](CSCC(=O)N[C@@H](CCCNC(=N)N)C(=O)N[C@@H](CCCN)C(=O)N[C@@H](CCCNC(=N)N)C(=O)N[C@@H](CCCN)C(=O)N[C@@H](CCCNC(=N)N)C(=O)N[C@@H](CCCN)C(=O)N[C@@H](CCCNC(=N)N)C(=O)N[C@@H](CCCN)C(N)=O)C(N)=O)C(C)C)C(C)C (I: Ac-SLYNTIAVLYSVHQRGC-NH2 / II: R[Orn]R[Orn]R[Orn]R[Orn]-NH2; linker I:17-II:N via X1) | > 4.6 | 1 | 4.8 | 4.6 | > 4.8 | 4.4
